From PubChem BioAssay AID206 (DTP/NCI, 2004)
Where “and” joins values, the source holds several entries; their conditions need not be identical. Equal values may be shown once. Records with an inconclusive call do not appear.

Test system: nude mice, HT29 intrarenal xenograft, tumor weight T/C
Assay: NCI In Vivo Anticancer Drug Screen. Data for tumor model HT29;CX-1 Human Adenocarcinoma (MER+) (intrarenal inoculation) in NU/NU Swiss (nude) mice
Conditions: endpoint: mean tumor weight change, higher = larger tumour
Outline: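 Readout: treated/vehicle-control ratio of the measured endpoint (tumor size or survival) in transplanted-tumor mice.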

[1] = dose: 12.5 mg/kg/injection, schedule: Q01DX010 (sc), vehicle: saline
[2] = dose: 25.0 mg/kg/injection, schedule: Q01DX010 (sc), vehicle: saline
[3] = dose: 300.0 mg/kg/injection, schedule: Q04DX004 (sc), vehicle: Klucel (hydroxypropylcellulose) (HPC)
[4] = dose: 600.0 mg/kg/injection, schedule: Q04DX004 (sc), vehicle: Klucel (hydroxypropylcellulose) (HPC)
[5] = dose: 150.0 mg/kg/injection, schedule: Q04DX004 (sc), vehicle: saline with Tween-80
[6] = dose: 300.0 mg/kg/injection, schedule: Q04DX004 (sc), vehicle: saline with Tween-80
[7] = dose: 100.0 mg/kg/injection, schedule: Q01DX010 (sc), vehicle: saline with Tween-80
[8] = dose: 200.0 mg/kg/injection, schedule: Q01DX010 (sc), vehicle: saline with Tween-80

N=[N+]=CC(=O)OCC(N)C(=O)O (configuration not stated)
T/C (dose: 3.13 mg/kg/injection, schedule: Q01DX010 (sc), vehicle: saline): 212 % of control | T/C (dose: 6.25 mg/kg/injection, schedule: Q01DX010 (sc), vehicle: saline): 87 % of control | T/C [1]: 85 % of control | T/C [2]: 123 % of control

N#C[C@H](OC1OC(COC2OC(CO)C(O)C(O)C2O)C(O)C(O)C1O)c1ccccc1 (some centres not stated)
T/C (dose: 450.0 mg/kg/injection, schedule: Q04DX004 (sc), vehicle: suspension in saline): 101 % of control | T/C (dose: 900.0 mg/kg/injection, schedule: Q04DX004 (sc), vehicle: suspension in saline): 67 % of control | T/C (dose: 1800.0 mg/kg/injection, schedule: Q04DX004 (sc), vehicle: suspension in saline): 56 % of control | T/C (dose: 3600.0 mg/kg/injection, schedule: Q04DX004 (sc), vehicle: suspension in saline): 69 % of control

Nc1nc(=O)n(C2OC(CO)C(O)C2O)cc1F (configuration not stated)
T/C (dose: 150.0 mg/kg/injection, schedule: Q04DX004 (ip), vehicle: saline): 122 % of control | T/C (dose: 300.0 mg/kg/injection, schedule: Q04DX004 (ip), vehicle: saline): 56 % of control | T/C (dose: 600.0 mg/kg/injection, schedule: Q04DX004 (ip), vehicle: saline): 83 % of control | T/C (dose: 600.0 mg/kg/injection, schedule: Q04DX004 (sc), vehicle: saline): 26 % of control | T/C (dose: 1200.0 mg/kg/injection, schedule: Q04DX004 (ip), vehicle: saline): 42 % of control | T/C (dose: 1200.0 mg/kg/injection, schedule: Q04DX004 (sc), vehicle: saline): 11 % of control

C[C@H]1C[C@@H]2[C@H]([C@@H](O)C[C@@]3(C)[C@H]2CC[C@]3(O)C(=O)CO)[C@@]2(C)C=CC(=O)C=C12
T/C (dose: 200.0 mg/kg/injection, schedule: Q04DX004 (sc), vehicle: Klucel (hydroxypropylcellulose) (HPC)): 69 % of control

O=c1[nH]cnc2n[nH]nc12
T/C [3]: 94 % of control | T/C [4]: 50 % of control | T/C (dose: 2400.0 mg/kg/injection, schedule: Q04DX004 (sc), vehicle: Klucel (hydroxypropylcellulose) (HPC)): 30 % of control

C=CCNc1nc2c(s1)CCc1cc(OC)c(OC)cc1-2
T/C [5]: 38 % of control | T/C [6]: 114 % of control | T/C (dose: 600.0 mg/kg/injection, schedule: Q04DX004 (sc), vehicle: saline with Tween-80): 113 % of control | T/C (dose: 1200.0 mg/kg/injection, schedule: Q04DX004 (sc), vehicle: saline with Tween-80): 80 % of control

CC(=O)O[C@H]1C(=O)[C@@]2(C)[C@H]([C@H](OC(=O)c3ccccc3)[C@]3(O)C[C@H](OC(=O)[C@H](O)[C@@H](NC(=O)c4ccccc4)c4ccccc4)C(C)=C1C3(C)C)[C@]1(OC(C)=O)CO[C@@H]1C[C@@H]2O
T/C (dose: 400.0 mg/kg/injection, schedule: Q01DX010 (sc), vehicle: Klucel (hydroxypropylcellulose) (HPC)): 3 % of control and 12 % of control and 16 % of control

CNC(=O)OCc1c(COC(=O)NC)c(-c2ccccc2)n(C)c1-c1ccccc1
T/C (dose: 50.0 mg/kg/injection, schedule: Q04DX004 (sc), vehicle: distilled water + Tween-80): 44 % of control | T/C (dose: 200.0 mg/kg/injection, schedule: Q04DX004 (sc), vehicle: distilled water + Tween-80): 68 % of control | T/C (dose: 400.0 mg/kg/injection, schedule: Q04DX004 (sc), vehicle: distilled water + Tween-80): 104 % of control

O=c1cnn(C2OC(CO)C(O)C2O)c(=O)[nH]1 (configuration not stated)
T/C (dose: 200.0 mg/kg/injection, schedule: Q01DX010 (sc), vehicle: saline): 71 % of control | T/C (dose: 400.0 mg/kg/injection, schedule: Q01DX010 (sc), vehicle: saline): 100 % of control | T/C (dose: 800.0 mg/kg/injection, schedule: Q01DX010 (sc), vehicle: saline): 97 % of control | T/C (dose: 1600.0 mg/kg/injection, schedule: Q01DX010 (sc), vehicle: saline): 34 % of control

CCCCCCCCSC1=C(Cl)C(=O)C(OC)=C(OC)C1=O
T/C (dose: 18.0 mg/kg/injection, schedule: Q04DX004 (sc), vehicle: saline with Tween-80): 96 % of control | T/C (dose: 36.0 mg/kg/injection, schedule: Q04DX004 (sc), vehicle: saline with Tween-80): 82 % of control | T/C (dose: 72.0 mg/kg/injection, schedule: Q04DX004 (sc), vehicle: saline with Tween-80): 118 % of control | T/C (dose: 144.0 mg/kg/injection, schedule: Q04DX004 (sc), vehicle: saline with Tween-80): 59 % of control

Nc1nc(N)c2c(Cl)c(CNc3ccc(Cl)c(Cl)c3)ccc2n1
T/C (dose: 9.38 mg/kg/injection, schedule: Q04DX004 (sc), vehicle: saline with Tween-80): 85 % of control | T/C (dose: 18.75 mg/kg/injection, schedule: Q04DX004 (sc), vehicle: saline with Tween-80): 60 % of control | T/C (dose: 37.5 mg/kg/injection, schedule: Q04DX004 (sc), vehicle: saline with Tween-80): 89 % of control and 94 % of control | T/C (dose: 75.0 mg/kg/injection, schedule: Q04DX004 (sc), vehicle: saline with Tween-80): 91 % of control and 97 % of control | T/C [5]: 113 % of control | T/C [6]: 64 % of control

O=C(Nc1cccc2c(OC(=O)C(Cl)Cl)c(N=Nc3ccc(S(=O)(=O)Nc4nccs4)cc3)cc(N=Nc3ccc(S(=O)(=O)Nc4nccs4)cc3)c12)C(Cl)Cl (tested in a mixture with another compound)
T/C (dose: 50.0 mg/kg/injection, schedule: Q04DX004 (sc), vehicle: saline with Tween-80): 78 % of control | T/C (dose: 100.0 mg/kg/injection, schedule: Q04DX004 (sc), vehicle: saline with Tween-80): 94 % of control | T/C (dose: 200.0 mg/kg/injection, schedule: Q04DX004 (sc), vehicle: saline with Tween-80): 58 % of control | T/C (dose: 400.0 mg/kg/injection, schedule: Q04DX004 (sc), vehicle: saline with Tween-80): 56 % of control

CC/C(=C(/CC)c1ccc(O)cc1)c1ccc(O)cc1
T/C [5]: 70 % of control | T/C [6]: 69 % of control

CN(Cc1cnc2nc(N)nc(N)c2n1)c1c(Cl)cc(C(=O)NC(CCC(=O)O)C(=O)O)cc1Cl (configuration not stated)
T/C (dose: 12.5 mg/kg/injection, schedule: Q01DX010 (sc), vehicle: Klucel (hydroxypropylcellulose) (HPC)): 166 % of control | T/C (dose: 25.0 mg/kg/injection, schedule: Q01DX010 (sc), vehicle: Klucel (hydroxypropylcellulose) (HPC)): 86 % of control

CN(C(=S)S(=O)(=O)C12CC3CC(CC(C3)C1)C2)c1ccccc1
T/C (dose: 12.5 mg/kg/injection, schedule: Q04DX004 (sc), vehicle: Klucel (hydroxypropylcellulose) (HPC)): 99 % of control | T/C (dose: 25.0 mg/kg/injection, schedule: Q04DX004 (sc), vehicle: Klucel (hydroxypropylcellulose) (HPC)): 113 % of control | T/C (dose: 400.0 mg/kg/injection, schedule: Q04DX004 (sc), vehicle: Klucel (hydroxypropylcellulose) (HPC)): 107 % of control and 123 % of control | T/C (dose: 800.0 mg/kg/injection, schedule: Q04DX004 (sc), vehicle: Klucel (hydroxypropylcellulose) (HPC)): 197 % of control

CC[PH+](CC)CC[S-].CC[PH+](CC)CC[S-].[Au+].[Au+]
T/C (dose: 160.0 mg/kg/injection, schedule: Q04DX004 (sc), vehicle: Klucel (hydroxypropylcellulose) (HPC)): 152 % of control

O=C1N(Cl)C(=O)C(c2ccc(Cl)cc2)(c2ccc(Cl)cc2)N1Cl
T/C [7]: 105 % of control | T/C [8]: 83 % of control

COc1c(CNC(=O)CCl)cc2[nH]c(C)cc2c1CNC(=O)CCl
T/C [3]: 192 % of control | T/C [4]: 124 % of control

C/C(=C\c1ccccc1)[N+](=O)[O-]
T/C (dose: 50.0 mg/kg/injection, schedule: Q01DX010 (sc), vehicle: Klucel (hydroxypropylcellulose) (HPC)): 91 % of control | T/C (dose: 100.0 mg/kg/injection, schedule: Q01DX010 (sc), vehicle: Klucel (hydroxypropylcellulose) (HPC)): 110 % of control

Cc1c2ccncc2c(C)c2c1[nH]c1ccccc12
T/C [1]: 70 % of control | T/C [2]: 47 % of control

CS(=O)(=O)CS(=O)(=O)OCCCl
T/C (dose: 37.5 mg/kg/injection, schedule: Q04DX004 (sc), vehicle: suspension in saline): 363 % of control | T/C (dose: 75.0 mg/kg/injection, schedule: Q04DX004 (sc), vehicle: suspension in saline): 187 % of control | T/C (dose: 150.0 mg/kg/injection, schedule: Q04DX004 (sc), vehicle: suspension in saline): 150 % of control

CC(=O)Oc1ccccc1O
T/C (dose: 75.0 mg/kg/injection, schedule: Q04DX004 (sc), vehicle: saline + Tween-80 + alcohol): 79 % of control | T/C (dose: 150.0 mg/kg/injection, schedule: Q04DX004 (sc), vehicle: saline + Tween-80 + alcohol): 109 % of control | T/C (dose: 300.0 mg/kg/injection, schedule: Q04DX004 (sc), vehicle: saline + Tween-80 + alcohol): 119 % of control

COC(=O)Nc1ccc(Cc2ccc(NC(=O)OC)cc2)cc1
T/C [7]: 26 % of control | T/C [8]: 100 % of control | T/C (dose: 400.0 mg/kg/injection, schedule: Q01DX010 (sc), vehicle: saline with Tween-80): 152 % of control | T/C (dose: 800.0 mg/kg/injection, schedule: Q01DX010 (sc), vehicle: saline with Tween-80): 58 % of control

CC1(C)OCC(CO)(Nc2nc(N3CC3)nc(N3CC3)n2)CO1
T/C (dose: 2.0 mg/kg/injection, schedule: Q04DX004 (sc), vehicle: saline): 76 % of control
